In ChEMBL document CHEMBL3045862, “PRE-CLINICAL AND CLINICAL PHARMACOKINETICS OF THE DIASTEREOMERS OF ARTEETHER, A POTENT ANTIMALARIAL” (Med Chem Res, 2004):

What was measured:
[1] = Cmax in Rattus norvegicus Sprague-Dawley (rat) at 30 mg/kg, administered intramuscularly; type: ADME, organism-based; parameters: dose 30 mg/kg, route intramuscular; settings: in vivo, im
[2] = Elimination half life in Rattus norvegicus Sprague-Dawley (rat) at 2 mg/kg, iv; type: ADME, organism-based; parameters: dose 2 mg/kg, route intravenous; settings: in vivo, read-out: beta t1/2 (converted)
[3] = Mean residence time in Macaca mulatta (Rhesus monkey) at 7.5 mg/kg, administered intramuscularly; type: ADME, organism-based; parameters: dose 7.5 mg/kg, route intramuscular; settings: in vivo, im
[4] = Cmax in Rattus norvegicus Sprague-Dawley (rat) at 30 mg/kg, po; type: ADME, organism-based; parameters: dose 30 mg/kg, route oral; settings: in vivo
[5] = Volume of distribution in Rattus norvegicus Sprague-Dawley (rat) at 2 mg/kg, iv; type: ADME, organism-based; parameters: dose 2 mg/kg, route intravenous; settings: in vivo
[6] = Tmax in Rattus norvegicus Sprague-Dawley (rat) at 9 mg/kg, po; type: ADME, organism-based; parameters: dose 9 mg/kg, route oral; settings: in vivo
[7] = AUC (0 to infinity) in Macaca mulatta (Rhesus monkey) at 50 mg/kg, po; type: ADME, organism-based, Plasma; parameters: time infinity, dose 50 mg/kg, route oral; settings: plasma
[8] = Mean residence time in Rattus norvegicus Sprague-Dawley (rat) at 9 mg/kg, po; type: ADME, organism-based; parameters: dose 9 mg/kg, route oral; settings: in vivo
[9] = Volume of distribution in Macaca mulatta (Rhesus monkey) at 4 mg/kg, iv; type: ADME, organism-based; parameters: dose 4 mg/kg, route intravenous; settings: in vivo
Rattus norvegicus [10] = assay: Volume of distribution in Rattus norvegicus Sprague-Dawley (rat) at 17.5 mg/kg, po; type: ADME, organism-based; parameters: dose 17.5 mg/kg, route oral; settings: in vivo
[11] = Elimination half life in Rattus norvegicus Sprague-Dawley (rat) at 30 mg/kg, po; type: ADME, organism-based; parameters: dose 30 mg/kg, route oral; settings: in vivo, read-out: beta t1/2 (converted)
Rattus norvegicus [12] = assay: Dose normalized AUC in Rattus norvegicus Sprague-Dawley (rat) at 30 mg/kg, administered intramuscularly; type: ADME, organism-based; parameters: dose 30 mg/kg, route intramuscular; settings: in vivo, im
[13] = Tmax in Homo sapiens (human) at 150 mg; type: ADME, organism-based; settings: in vivo
[14] = Elimination half life in Rattus norvegicus Sprague-Dawley (rat) at 17.5 mg/kg, administered intramuscularly; type: ADME, organism-based; parameters: dose 17.5 mg/kg, route intramuscular; settings: in vivo, im, read-out: beta t1/2 (converted)
[15] = AUC (0 to infinity) in Macaca mulatta (Rhesus monkey) at 7.5 mg/kg, administered intramuscularly; type: ADME, organism-based, Plasma; parameters: time infinity, dose 7.5 mg/kg, route intramuscular; settings: plasma, im
[16] = AUC (0 to infinity) in Rattus norvegicus Sprague-Dawley (rat) at 30 mg/kg, administered intramuscularly; type: ADME, organism-based, Plasma; parameters: time infinity, dose 30 mg/kg, route intramuscular; settings: Sprague-Dawley, plasma, im
[17] = Elimination half life in Macaca mulatta (Rhesus monkey) at 7.5 mg/kg, administered intramuscularly; type: ADME, organism-based; parameters: dose 7.5 mg/kg, route intramuscular; settings: in vivo, im, read-out: beta t1/2 (converted)
[18] = AUC (0 to infinity) in Rattus norvegicus Sprague-Dawley (rat) at 30 mg/kg, po; type: ADME, organism-based, Plasma; parameters: time infinity, dose 30 mg/kg, route oral; settings: Sprague-Dawley, plasma
[19] = Volume of distribution in Homo sapiens (human) at 150 mg; type: ADME, organism-based; settings: in vivo
[20] = Tmax in Rattus norvegicus Sprague-Dawley (rat) at 30 mg/kg, administered intramuscularly; type: ADME, organism-based; parameters: dose 30 mg/kg, route intramuscular; settings: in vivo, im
[21] = Mean residence time in Rattus norvegicus Sprague-Dawley (rat) at 2 mg/kg, iv; type: ADME, organism-based; parameters: dose 2 mg/kg, route intravenous; settings: in vivo
[22] = AUC (0 to infinity) in Rattus norvegicus Sprague-Dawley (rat) at 9 mg/kg, administered intramuscularly; type: ADME, organism-based, Plasma; parameters: time infinity, dose 9 mg/kg, route intramuscular; settings: Sprague-Dawley, plasma, im
[23] = Tmax in Macaca mulatta (Rhesus monkey) at 7.5 mg/kg, administered intramuscularly; type: ADME, organism-based; parameters: dose 7.5 mg/kg, route intramuscular; settings: in vivo, im
[24] = AUC (0 to infinity) in Rattus norvegicus Sprague-Dawley (rat) at 17.5 mg/kg, po; type: ADME, organism-based, Plasma; parameters: time infinity, dose 17.5 mg/kg, route oral; settings: Sprague-Dawley, plasma
[25] = Tmax in Rattus norvegicus Sprague-Dawley (rat) at 17.5 mg/kg, po; type: ADME, organism-based; parameters: dose 17.5 mg/kg, route oral; settings: in vivo
[26] = Elimination half life in Rattus norvegicus Sprague-Dawley (rat) at 9 mg/kg, po; type: ADME, organism-based; parameters: dose 9 mg/kg, route oral; settings: in vivo, read-out: beta t1/2 (converted)
[27] = Mean residence time in Rattus norvegicus Sprague-Dawley (rat) at 17.5 mg/kg, administered intramuscularly; type: ADME, organism-based; parameters: dose 17.5 mg/kg, route intramuscular; settings: in vivo, im
Rattus norvegicus [28] = assay: Volume of distribution in Rattus norvegicus Sprague-Dawley (rat) at 30 mg/kg, administered intramuscularly; type: ADME, organism-based; parameters: dose 30 mg/kg, route intramuscular; settings: in vivo, im
[29] = Cmax in Macaca mulatta (Rhesus monkey) at 50 mg/kg, po; type: ADME, organism-based; parameters: dose 50 mg/kg, route oral; settings: in vivo
Rattus norvegicus [30] = assay: Volume of distribution in Rattus norvegicus Sprague-Dawley (rat) at 9 mg/kg, po; type: ADME, organism-based; parameters: dose 9 mg/kg, route oral; settings: in vivo
[31] = Cmax in Rattus norvegicus Sprague-Dawley (rat) at 17.5 mg/kg, administered intramuscularly; type: ADME, organism-based; parameters: dose 17.5 mg/kg, route intramuscular; settings: in vivo, im
[32] = Elimination half life in Macaca mulatta (Rhesus monkey) at 4 mg/kg, iv; type: ADME, organism-based; parameters: dose 4 mg/kg, route intravenous; settings: in vivo, read-out: beta t1/2 (converted)
Homo sapiens = species on record: Homo sapiens; assay: Dose normalized AUC in Homo sapiens (human) at 150 mg; type: ADME, organism-based; settings: in vivo
Rhesus monkey = assay: Volume of distribution in Macaca mulatta (Rhesus monkey) at 7.5 mg/kg, administered intramuscularly; type: ADME, organism-based; parameters: dose 7.5 mg/kg, route intramuscular; settings: in vivo, im
[33] = Elimination half life in Rattus norvegicus Sprague-Dawley (rat) at 30 mg/kg, administered intramuscularly; type: ADME, organism-based; parameters: dose 30 mg/kg, route intramuscular; settings: in vivo, im, read-out: beta t1/2 (converted)
[34] = Cmax in Rattus norvegicus Sprague-Dawley (rat) at 9 mg/kg, po; type: ADME, organism-based; parameters: dose 9 mg/kg, route oral; settings: in vivo
[35] = Tmax in Rattus norvegicus Sprague-Dawley (rat) at 9 mg/kg, administered intramuscularly; type: ADME, organism-based; parameters: dose 9 mg/kg, route intramuscular; settings: in vivo, im
[36] = Mean residence time in Rattus norvegicus Sprague-Dawley (rat) at 30 mg/kg, administered intramuscularly; type: ADME, organism-based; parameters: dose 30 mg/kg, route intramuscular; settings: in vivo, im
[37] = Clearance in Rattus norvegicus Sprague-Dawley (rat) at 9 mg/kg, po; type: ADME, organism-based; parameters: dose 9 mg/kg, route oral; settings: Sprague-Dawley, in vivo
Rattus norvegicus [38] = assay: Dose normalized AUC in Rattus norvegicus Sprague-Dawley (rat) at 9 mg/kg, po; type: ADME, organism-based; parameters: dose 9 mg/kg, route oral; settings: in vivo

Compound `CCO[C@H]1O[C@@H]2O[C@@]3(C)CC[C@H]4[C@H](C)CC[C@@H]([C@H]1C)[C@@]24OO3` [ARTEMOTIL] has a Cmax [1] of 0.0278 µg/mL, a half-life [2] of 0.85 h and an MRT [3] of 26.7 h. For the same compound, the Cmax [4] was 0.0081 µg/mL, the Vd [5] was 9.3 L/kg and the Tmax [6] was 5 min. It also gave an AUC(0-inf) [7] of 0.0085 µg·h/mL, an MRT [8] of 6.7 h and a Vd [9] of 8.6 L/kg. The Vd (Rattus norvegicus [10]) was 1965.9 L/kg, the half-life [11] was 2.8 h and the AUC/dose (Rattus norvegicus [12]) was 19.4 ng·h/mL. It also gave a Tmax [13] of 6.9 min, a half-life [14] of 27.5 h and an AUC(0-inf) [15] of 0.747 µg·h/mL. It also gave an AUC(0-inf) [16] of 0.407 µg·h/mL, a half-life [17] of 19.1 h and an AUC(0-inf) [18] of 0.0256 µg·h/mL. The Vd [19] was 36.2 L/kg, the Tmax [20] was 0.167 h and the MRT [21] was 0.9 h. The AUC(0-inf) [22] was 1.18 µg·h/mL, the Tmax [23] was 1.83 h and the AUC(0-inf) [24] was 0.0339 µg·h/mL. For the same compound, the Tmax [25] was 5 min, the half-life [26] was 4.2 h and the MRT [27] was 33.2 h. It also gave a Vd (Rattus norvegicus [28]) of 1660.6 L/kg, a Cmax [29] of 0.0017 µg/mL and a Vd (Rattus norvegicus [30]) of 770.8 L/kg. It also gave a Cmax [31] of 0.137 µg/mL, a half-life [32] of 2.6 h and an AUC/dose (Homo sapiens) of 1315.7 ng·h/mL. The Vd (Rhesus monkey) was 197.2 L/kg, the half-life [33] was 25.2 h and the Cmax [34] was 0.0103 µg/mL. It also gave a Tmax [35] of 0.333 h, an MRT [36] of 44.2 h and a CL/F [37] of 128 L/h/kg. For the same compound, the AUC/dose (Rattus norvegicus [38]) was 7.4 ng·h/mL.
